# From PMC4403932 (Journal of Medicinal Chemistry, 2015)
# Values joined by “and” are separate entries in the source; they are usually repeats but may differ in a detail not shown here. Equal values may be shown once. “Also recorded” adds a separate entry of the source. Read-outs that look alike come from different tables or passages of the source.
# How the values were obtained:
# BRD4(1) = target: T1, BRD4(1) (Homo sapiens, UniProt O60885); assay: Isothermal titration calorimetry, BRD4(1); format: binding; settings: for Kd / TΔS / ΔG / N (stoichiometry) / ΔHobs: ITC; for LE (ligand efficiency): LE = ΔG/N, N number of non-hydrogen atoms
# T1 construct: made in house
# Method: (§1) Experiments were carried out on an ITC200 titration microcalorimeter from MicroCal, LLC (GE Healthcare) equipped with a Washing module, with a cell volume of 0.2003 mL, and a 40 μL microsyringe. Experiments were carried out at 15 °C while stirring at 1000 rpm, in ITC buffer (50 mM HEPES, pH 7.5 (at 25 °C), 150 mM NaCl). The microsyringe was loaded with a solution of the protein sample (300−740 μM protein for BRD9 and BRD4(1), respectively, in ITC buffer) and was carefully inserted into the calorimetric cell which was filled with an amount of the ligand (0.2 mL, 20–25 μM in ITC buffer). The system was first allowed to equilibrate until the cell temperature reached 15 °C, and an additional delay of 60 s was applied. All titrations were conducted using an initial control injection of 0.3 μL followed by 38 identical injections of 1 μL with a duration of 2 s (per injection) and a spacing of 120 s between injections. The titration experiments were designed in such a fashion as to ensure complete saturation of the proteins before the final injection. The heat of dilution for the proteins was independent of their concentration and corresponded to the heat observed from the last injection, following saturation of ligand binding, thus facilitating the estimation of the baseline of each titration from the last injection. The collected data were corrected for protein heats of dilution (measured on separate experiments by titrating the proteins into ITC buffer) and deconvoluted using the MicroCal Origin software supplied with the instrument to yield enthalpies of binding (ΔH) and binding constants (KB) in the same fashion as that previously described in detail by Wiseman and co-workers.[66] Thermodynamic parameters were calculated using the basic equation of thermodynamics (ΔG = ΔH – TΔS = −RT ln KB, where ΔG, ΔH, and ΔS are the changes in free energy, enthalpy, and entropy of binding, respectively). In all cases a single binding site model was employed, supplied with the MicroCal Origin software package.
# BRD3(1) = target: T2, BRD3(1) (Homo sapiens, UniProt Q15059); assay: Isothermal titration calorimetry, BRD3(1); format: binding; settings: for LE (ligand efficiency): LE = ΔG/N, N number of non-hydrogen atoms
# T2 construct: Fragments were tested in a thermal shift assay against bromodomains of the BET subfamily; made in house
# Method: as §1
# BRD9 = target: T3, BRD9 (Homo sapiens, UniProt Q9H8M2); assay: Protein stability (thermal) shift assay, BRD9; format: binding
# T3 construct: made in house
# T3 sequence (Q9H8M2 136-240 limits assumed): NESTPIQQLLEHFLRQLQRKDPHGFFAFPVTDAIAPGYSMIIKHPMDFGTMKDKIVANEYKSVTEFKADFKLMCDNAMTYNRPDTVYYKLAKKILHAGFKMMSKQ
# BRD2(1) = target: T4, BRD2(1) (Homo sapiens, UniProt P25440); assay: Protein stability (thermal) shift assay, BRD2(1); format: binding; settings: compound 10 μM, protein 2 μM; average of triplicate
# T4 construct: Fragments were tested in a thermal shift assay against bromodomains of the BET subfamily; made in house
# BRD9 bromodomain = target: T5, BRD9 bromodomain (Homo sapiens, UniProt Q9H8M2); assay: NanoBRET assay, NanoLuc-BRD9 bromodomain / histone H3.3-HaloTag in HEK293 cells; format: cell-based; settings: 0.005-33 μM, 18 h, read-out: cellular (apparent) IC50, displacement of NanoLuc-BRD9 bromodomain from histone H3.3
# T5 construct: Q9H8M2-BRD amino acids 120–240; expressed in transfected cells; host or cells: HEK293
# T5 sequence (Q9H8M2 120-240): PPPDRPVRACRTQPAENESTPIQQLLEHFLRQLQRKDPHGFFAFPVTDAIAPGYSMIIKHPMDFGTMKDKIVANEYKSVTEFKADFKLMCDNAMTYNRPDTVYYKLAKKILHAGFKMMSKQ
# Method: (§2) Twenty hours post-transfection 2 × 10^4 cells were trypsinized, washed with PBS, and exchanged into media containing phenol red-free DMEM, 10% FBS in the absence (control sample), or the presence (experimental sample) of 100 nM NanoBRET 618 fluorescent ligand (Promega). Cell density was adjusted to 2 × 10^5 cells/mL and then replated in a 96-well assay white plate (Corning Costar no. 3917). At the time of replating compound 7d or 11 were added at a final concentration spanning from 0.005 to 33 μM and the plates were incubated for 18 h at 37 °C in the presence of 5% CO2. NanoBRET substrate (Promega) was added to both control and experimental samples at a final concentration of 10 μM. Readings were performed within 5 min using the CLARIOstar reader (BMG Lifetechnologies) equipped with 450/80 nm bandpass and 610 nm long-pass filters. A corrected BRET ratio was calculated and is defined as the ratio of the emission at 610 nm/450 nm for experimental samples (i.e., those treated with NanoBRET fluorescent ligand) subtracted by and the emission at 610 nm/450 nm for control samples (not treated with NanoBRET fluorescent). BRET ratios are expressed as milliBRET units (mBU), where 1 mBU corresponds to the corrected BRET ratio multiplied by 1000.
# full length BRD4 = target: T6, full length BRD4 (Homo sapiens, UniProt O60885); assay: NanoBRET assay, NanoLuc-BRD4 full-length / histone H3.3-HaloTag in HEK293 cells; format: cell-based; settings: up to 33 μM, 18 h
# T6 construct: NanoLuc-fused full length BRD4 (UniProt code O60885); expressed in transfected cells; host or cells: HEK293
# Method: as §2
# [1] = 50 mM HEPES pH 7.5, 150 mM NaCl, 15 °C, reverse titration, triplicate, read-out: KD
# [2] = read-out: dissociation constant
# T2 sequence (Q15059 34-140 limits assumed): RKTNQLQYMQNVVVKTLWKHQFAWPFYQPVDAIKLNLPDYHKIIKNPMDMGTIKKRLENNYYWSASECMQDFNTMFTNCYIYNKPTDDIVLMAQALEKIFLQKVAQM
# T4 sequence (P25440 74-180 limits assumed): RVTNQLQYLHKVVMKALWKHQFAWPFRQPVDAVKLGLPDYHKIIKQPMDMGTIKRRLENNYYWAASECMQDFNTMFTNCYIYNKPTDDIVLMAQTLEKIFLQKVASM
SMILES,Kd (BRD4(1); [1]),TΔS (BRD4(1); 15 °C),ΔG (BRD4(1); 15 °C),"N (stoichiometry) (BRD4(1); 15 °C, reverse titration)","ΔHobs (BRD4(1); 15 °C, reverse titration)",Kd (BRD4(1); [2]),LE (ligand efficiency) (BRD4(1)),"Kd (BRD3(1); ITC, 50 mM HEPES pH 7.5, 150 mM NaCl, 15 °C, reverse titration, triplicate)","TΔS (BRD3(1); ITC, 15 °C)","ΔG (BRD3(1); ITC, 15 °C)","N (stoichiometry) (BRD3(1); ITC, 15 °C, reverse titration)","ΔHobs (BRD3(1); ITC, 15 °C, reverse titration)",LE (ligand efficiency) (BRD3(1)),"ΔTm at 10 µM (BRD9; compound 10 μM, protein 2 μM, average of triplicate, read-out: ΔTm Shift, BRD9)",ΔTm at 10 µM (BRD2(1)),IC50 (BRD9 bromodomain),displacement of full-length BRD4 from histone H3.3 (in words) (full length BRD4),"ΔTm at 10 µM (BRD9; thermal shift, 10 μM compound, 2 μM protein, read-out: ΔTm)"
"COc1ccc(Br)cc1-c1nc(N)nc2[nH]cnc12 [Compound 7d, 2-Amino-6-(5-bromo-2-methoxyphenyl)-9H-purine]",4.65 ± 0.197 µM,0.94 kcal/mol,–7.03 kcal/mol,0.99 ± 0.018,–6.09 ± 0.14 kcal/mol,4.7 µM and 4.65 µM,0.37,2040 ± 105 nM,0.33 kcal/mol,–7.50 kcal/mol,1.01 ± 0.009,–7.17 ± 0.09 kcal/mol,0.39,3.6 °C,2.5 °C,3500 nM,fail to elicit the same effect; also recorded: not completely displaced; also recorded: failing to displace,–
"Nc1nc(-c2cc(Br)cc3c2OCC3)c2nc[nH]c2n1 [Compound 11, 2-Amino-6-(5-bromo-2,3-dihydrobenzo[b]furan-7-yl)-9H-purine]",1.37 ± 0.029 µM,1.34 kcal/mol,–7.73 kcal/mol,1.09 ± 0.002,–6.39 ± 0.02 kcal/mol,1.4 µM and 1.37 µM,0.39,–,0.33 kcal/mol,–7.50 kcal/mol,1.01 ± 0.009,–7.17 ± 0.09 kcal/mol,0.38,–,2.8 °C,480 nM and 477 nM,fail to elicit the same effect; also recorded: not completely displaced; also recorded: failing to displace,6.5 °C
